According to the supplement of paper PMC8960247:
± gives the standard error.

Test system: 621-102 (TSC2-deficient)
Assay: relative viability vs DMSO; higher = less cytotoxic
Settings: 0.0001 µM; serum: 10% FBS; 72 h
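Also: immortalized renal angiomyolipoma cells stably carrying empty vector or TSC2, dosed in 384-well plates in DMEM, viability normalized to vehicle-treated wells within each plate.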

In order of falling relative viability:
1. c1ccc2c(CCNc3ccc(Nc4ccncc4)cc3)c[nH]c2c1  131 ± 2%
2. CNCc1ccc(-c2[nH]c3cc(F)cc4c3c2CCNC4=O)cc1  130 ± 2.7%
3. CN(C)Cc1ccc(-c2nc3cccc4c3n2CCNC4=O)cc1  125 ± 2.7%
4. CC1=C(C(=O)Nc2cc3cn[nH]c3cc2F)C(c2ccc(C(F)(F)F)cc2)CC(=O)N1 (stereo not drawn)  121 ± 2.4%
5. Oc1ccc([C@@H]2Oc3ccc(O)cc3[C@@H]3CCC[C@@H]32)cc1  120.08 ± 0.051%
6. COc1cc(Nc2ncc(F)c(Nc3ccc4c(n3)N(COP(=O)(O)O)C(=O)C(C)(C)O4)n2)cc(OC)c1OC  111.5 ± 1.1%
7. Cc1ccc(CN2CCNCC2)cc1NC(=O)CNc1ccc(F)c(F)c1  112 ± 2.2%
8. CC(C)(C(=O)NCC(F)(F)C(F)(F)F)C(=O)N[C@@H]1C(=O)Nc2ccccc2-c2ccccc21  110 ± 1.1%
9. COc1cc(OC)c(/C=C/S(=O)(=O)Cc2ccc(OC)c(NCC(=O)O)c2)c(OC)c1  109 ± 2.7%
10. COc1cccc(-c2cc(=O)c3ccccc3o2)c1N  109 ± 2.8%
11. C=CC(=O)N1CCC[C@@H](n2nc(-c3ccc(Oc4ccccc4)cc3)c3c(N)ncnc32)C1  108 ± 3.1%
12. Cc1ccccc1-n1c(Cn2cnc3c(N)ncnc32)nc2cccc(C)c2c1=O  108.5 ± 0.61%
13. Nc1nc(Nc2ccc(S(N)(=O)=O)cc2)nn1C(=O)c1c(F)cccc1F  107 ± 1.5%
14. CC(C)CC(=O)Nc1n[nH]c2c1CN(C(=O)C1CCN(C)CC1)C2(C)C  105.5 ± 0.63%
15. C[C@@H](Oc1cc(-c2cnn(C3CCNCC3)c2)cnc1N)c1c(Cl)ccc(F)c1Cl  105.6 ± 0.81%
16. CNC(=O)c1ccc(C)c(-n2c(C)cc(OCc3ccc(F)cc3F)c(Br)c2=O)c1  105 ± 5.5%
17. COc1cccc(Nc2c(C(N)=O)cnc3c(C)cc(S(=O)(=O)c4cccc(C(=O)N(C)C)c4)cc23)c1  105 ± 5%
18. NC1=N[C@@]2(c3cc(NC(=O)c4ccc(F)cn4)ccc3F)COC[C@H]2CS1  105 ± 1.8%
19. O=C(NOCC(O)CO)c1cc(Br)c(F)c(F)c1Nc1ccc(I)cc1F (stereo not drawn)  105 ± 4.9%
20. CC(=O)c1c(C)c2cnc(Nc3ccc(N4CCNCC4)cn3)nc2n(C2CCCC2)c1=O  103 ± 1.6%
21. CC1(C)C(=O)N(CCN2CCC(C(=O)c3ccc(F)cc3)CC2)c2ccccc21  102.5 ± 0.86%
22. OCCn1cc(-c2cnc3nnn(Cc4ccc5ncccc5c4)c3n2)cn1  103 ± 2.2%
23. CN1CCN(c2ccc([N+](=O)[O-])c3no[n+]([O-])c23)CC1  102 ± 5.5%
24. COc1ccc(-c2cc3c(C)nc(N)nc3n([C@H]3CC[C@H](OCCO)CC3)c2=O)cn1  101 ± 5.6%
25. C[C@@H]1CN(CC(=O)Nc2ccc3c(c2)Cc2cccc(-c4cc(=O)cc(N5CCOCC5)o4)c2S3)C[C@H](C)O1  101 ± 1.9%
26. Cn1cc(-c2ccc3nnc(C(F)(F)c4ccc5ncccc5c4)n3n2)cn1  101 ± 1.6%
27. O=C1NC(=O)/C(=C/c2ccc3nccc(-c4ccncc4)c3c2)S1  101 ± 3.6%
28. O=c1cc(-c2cccc3c2Sc2ccccc2S3)oc(N2CCOCC2)c1  101 ± 3%
29. CC(C)(C)Cn1c(N)nc2ccc(-c3[nH]c(C(C)(C)C)nc3-c3ccc(F)cc3)nc21  100 ± 4.4%
30. CN(c1ncccc1CNc1nc(Nc2ccc3c(c2)CC(=O)N3)ncc1C(F)(F)F)S(C)(=O)=O  99.84 ± 0.61%
31. O=C(NOC[C@H](O)CO)c1ccc(F)c(F)c1Nc1ccc(I)cc1F  98.6 ± 2.5%
32. Cc1cccc(-c2nn3c(c2-c2ccnc4ccc(C(N)=O)cc24)CCC3)n1  97.6 ± 7.5%
33. C[C@@H](Oc1cc(-n2cnc3ccc(CN4CCN(C)CC4)cc32)sc1C(N)=O)c1ccccc1C(F)(F)F  97.01 ± 0.82%
34. COc1cc2ncnc(Nc3cccc(Br)c3)c2cc1OC  96.7 ± 1%
35. O=c1cc(N2CCOCC2)oc2c(-c3ccccc3)cccc12  95.6 ± 1.2%
36. COC(=O)N1CCN(Cc2cccc(NC(=O)Nc3ccc(C)nc3)c2F)CC1  93.8 ± 5.1%
37. CC(C)c1cc(-c2ccc(F)c3ccccc23)nc(N)n1  91.6 ± 2.5%
38. O=C(c1ccc(F)cc1)N1CCC[C@H](c2nc(-c3ccc(F)cc3)no2)C1  90.9 ± 4.4%
39. COc1cc(OC)c(NC(=O)Nc2cc(C)on2)cc1Cl  83.6 ± 4.5%
40. COc1ncc(-c2ccc3nccc(-c4ccnnc4)c3c2)cc1NS(=O)(=O)c1ccc(F)cc1F  80.7 ± 11%
41. COc1ccc(-c2ccc3c(N4CCOCC4)nc(N4C[C@@H](C)O[C@@H](C)C4)nc3n2)cc1CO  74.3 ± 2.3%
42. CC1(C)CC(=O)c2c(C(F)(F)F)nn(-c3ccc(C(N)=O)c(N[C@H]4CC[C@H](OC(=O)CN)CC4)c3)c2C1  63.2 ± 4.8%

Same assay, conditions: 0.001 µM; serum: 10% FBS; 72 h

In order of falling relative viability:
1. CN(C)Cc1ccc(-c2nc3cccc4c3n2CCNC4=O)cc1  120.04 ± 0.068%
2. CC(C)(C(=O)NCC(F)(F)C(F)(F)F)C(=O)N[C@@H]1C(=O)Nc2ccccc2-c2ccccc21  115 ± 1.2%
3. CC(=O)c1c(C)c2cnc(Nc3ccc(N4CCNCC4)cn3)nc2n(C2CCCC2)c1=O  109.7 ± 0.24%
4. COc1ccc(-c2cc3c(C)nc(N)nc3n([C@H]3CC[C@H](OCCO)CC3)c2=O)cn1  110 ± 2.5%
5. CC(C)CC(=O)Nc1n[nH]c2c1CN(C(=O)C1CCN(C)CC1)C2(C)C  109 ± 4%
6. CNCc1ccc(-c2[nH]c3cc(F)cc4c3c2CCNC4=O)cc1  109 ± 3.2%
7. COc1cc(OC)c(/C=C/S(=O)(=O)Cc2ccc(OC)c(NCC(=O)O)c2)c(OC)c1  109 ± 2.2%
8. CC(C)c1cc(-c2ccc(F)c3ccccc23)nc(N)n1  107 ± 7%
9. COc1cc(Nc2ncc(F)c(Nc3ccc4c(n3)N(COP(=O)(O)O)C(=O)C(C)(C)O4)n2)cc(OC)c1OC  107.4 ± 0.97%
10. COc1cc2ncnc(Nc3cccc(Br)c3)c2cc1OC  107 ± 3.8%
11. CN(c1ncccc1CNc1nc(Nc2ccc3c(c2)CC(=O)N3)ncc1C(F)(F)F)S(C)(=O)=O  105 ± 2.5%
12. CC1=C(C(=O)Nc2cc3cn[nH]c3cc2F)C(c2ccc(C(F)(F)F)cc2)CC(=O)N1 (stereo not drawn)  104 ± 2.5%
13. CC1(C)C(=O)N(CCN2CCC(C(=O)c3ccc(F)cc3)CC2)c2ccccc21  103 ± 1.4%
14. CN1CCN(c2ccc([N+](=O)[O-])c3no[n+]([O-])c23)CC1  101.2 ± 1%
15. CNC(=O)c1ccc(C)c(-n2c(C)cc(OCc3ccc(F)cc3F)c(Br)c2=O)c1  101 ± 2.1%
16. C=CC(=O)N1CCC[C@@H](n2nc(-c3ccc(Oc4ccccc4)cc3)c3c(N)ncnc32)C1  99.6 ± 2.7%
17. CC(C)(C)Cn1c(N)nc2ccc(-c3[nH]c(C(C)(C)C)nc3-c3ccc(F)cc3)nc21  99.6 ± 4.4%
18. COC(=O)N1CCN(Cc2cccc(NC(=O)Nc3ccc(C)nc3)c2F)CC1  94.7 ± 5.8%
19. COc1cc(OC)c(NC(=O)Nc2cc(C)on2)cc1Cl  92 ± 5%
20. COc1ccc(-c2ccc3c(N4CCOCC4)nc(N4C[C@@H](C)O[C@@H](C)C4)nc3n2)cc1CO  78 ± 8.3%
21. CC1(C)CC(=O)c2c(C(F)(F)F)nn(-c3ccc(C(N)=O)c(N[C@H]4CC[C@H](OC(=O)CN)CC4)c3)c2C1  65.7 ± 8%
